Experimental findings from US20180099937A1, “NOVEL ARYL-CYANOGUANIDINE COMPOUNDS” (Bayer Pharma Aktiengesellschaft, priority 2015, published 2018) are described below.

The target in assay [1] is T1, SMYD2 (Homo sapiens, UniProt Q9NRG4). Kind of assay: In Cell Western (ICW) cell-based assay for detection of SMYD2 methylation activity. On the set-up: expressed in transfected cells; host or cells: KYSE-150 (human esophageal carcinoma, DSMZ ACC 375). To be noted: SMYD2 overexpressing KYSE-150 cells, 72 h treatment, p53K370me1 signal normalized to DRAQ5; read-out: IC50 [mol/l] (ICW assay). The text has this:
1.2 Cell-Based Assay for Detection of SMYD2 methylation Activity
For the detection of SMYD2 cellular methylation activity an In Cell Western (ICW) assay was established. This assay allows rapid processing of multiple samples for SMYD2 methylation derived immunofluorescence signals, with normalization to cell number via the use of the nucleic acid dye DRAQS. KYSE-150 cells (human esophageal carcinoma cell line; DSMZ-German Collection of Microorganisms and Cell Cultures; No: ACC 375) have been stably transfected with a construct expressing wild-type SMYD2 (NCBI Reference Sequence: NP_064582.2). To detect SMYD2-mediated methylation signals in cells, a customized antibody directed against mono-methylated lysine 370 on protein p53 (p53K370me1) was used. The polyclonal antibody was generated (Eurogentec) against a p53 peptide containing the mono-methylated K370 epitope as described elsewhere (Huang et al., Nature, 2006, 444(7119):629-32).
For conducting the ICW assay 5000 SMYD2 overexpressing KYSE-150 cells/well were seeded in 96-well plates (SIGMA) and cultivated for 24 h. As a control for maximal inhibition of ectopic methylation activity, non-transfected KYSE-150 cells were used. Cells were grown in 49% RPMI 1640 with 49% Ham's F12 media supplemented with 2% heat inactivated fetal calf serum (FCS). For determination of SMYD2 inhibitory activity, cells were treated for 72 h in the presence of compounds or with DMSO. Cells were treated with compounds to be tested at a final concentration range varying from 3.9×10^−8 to 5×10^−6 M. Media was removed and 3.7% (w/v) formaldehyde in PBS was added for 20 min. After two washes with phosphate buffered saline (PBS), 0.25% (v/v) Triton X100 in PBS was added for 15 minutes of permeabilization. After one washing step with PBS, cells were blocked for 1 h with 5% (w/v) non-fat dry milk in PBS. Fixed cells were exposed to primary […] antibody in 5% non-fat dry milk in PBS for 24 h. One row of cells on each plate was not exposed to p53K370me1 antibody and was reserved for background control measurements. The wells were washed three times with PBS, then secondary IR800 conjugated antibody (LI-COR) and DNA-intercalating dye, 5 μM DRAQ5 (LI-COR) were added for 3 h. After 5 washes with PBS, the fluorescence in each well was measured on an Odyssey (LI-COR) scanner at 800 nm (p53K370me1 signal; 764 nm excitation) and 700 nm (DRAQS signal; 683 nm excitation). Fluorescence intensity was quantified and normalized to background and DRAQ5 signals. IC50 values were calculated by fitting the normalized inhibition data to a 4-parameter logistic equation (Minimum, Maximum, IC50, Hill; Y=Max+(Min−Max)/(1+(X/IC50)Hill)) for each tested compound. For IC50 determination C0 (=no inhibition) was defined as the signal measured for DMSO treated controls. Ci (maximal inhibition) was defined as the signal measured for non SMYD2 overexpressing KYSE150 cells.

The target of assay [2] is T1, SMYD2. Kind of assay: Scintillation Proximity Assay (SPA) for detection of SMYD2 enzymatic inhibition. The settings on record: SMYD2 full length enzyme, p53 Peptide substrate 1.0 μM, 3H-SAM 60 nM; read-out: IC50 [mol/l] (SPA Assay). On the set-up: The SMYD2 full length enzyme was produced in-house by expression (with an N-terminal 6× His tag) in E. coli; 6xHis (N); made in house; host or cells: E. coli. It is filed as biochemical. In outline:
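Full-length N-His SMYD2 from E. coli (typically 3 nM) was preincubated with compounds (0.1 nM–20 μM) for 15 min, then reacted 30 min at 22° C with 60 nM 3H-SAM and 1.0 μM biotinylated p53 peptide in Tris pH 9.0. Streptavidin SPA beads read methylation, and IC50 came from a 4-parameter fit.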

T1 sequence (Q9NRG4 whole entry): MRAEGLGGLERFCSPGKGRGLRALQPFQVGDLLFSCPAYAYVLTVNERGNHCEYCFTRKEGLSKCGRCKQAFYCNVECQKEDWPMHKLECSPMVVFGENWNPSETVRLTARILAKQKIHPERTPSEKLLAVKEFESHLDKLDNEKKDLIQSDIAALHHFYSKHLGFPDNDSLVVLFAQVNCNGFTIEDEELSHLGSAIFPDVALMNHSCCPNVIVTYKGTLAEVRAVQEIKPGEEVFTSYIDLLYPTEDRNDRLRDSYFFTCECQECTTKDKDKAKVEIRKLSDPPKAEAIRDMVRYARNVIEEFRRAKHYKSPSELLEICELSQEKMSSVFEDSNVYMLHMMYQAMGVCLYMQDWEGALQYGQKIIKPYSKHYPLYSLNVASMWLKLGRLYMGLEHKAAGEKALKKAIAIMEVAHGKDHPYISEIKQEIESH

Turning to `CCN(C(=O)[C@H]1CCCN1)C1CN(/C(=N\C#N)Nc2cccc(OC(F)F)c2)N=C1c1ccc(Cl)c(Cl)c1` (mixture of isomers) [Example 1, N-[1-{N′-Cyano-N-[3-(difluoromethoxy)phenyl]carbamimidoyl}-3-(3,4-dichlorophenyl)-4,5-dihydro-1H-pyrazol-4-yl]-N-ethyl-D-prolinamide], the IC50 stood at 0.161 µM on SMYD2 [1] and 0.0247 µM on SMYD2 [2].
Consider `CCN(C(=O)[C@H]1CCN1)C1CN(/C(=N\C#N)Nc2cccc(OC(F)F)c2)N=C1c1ccc(Cl)c(Cl)c1` (mixture of isomers) [Example 2, (2R)-N-[1-{N′-cyano-N-[3-(difluoromethoxy)phenyl]carbamimidoyl}-3-(3,4-dichlorophenyl)-4,5-dihydro-1H-pyrazol-4-yl]-N-ethylazetidine-2-carboxamide], for which the IC50 on SMYD2 [1] was 0.0445 µM; on SMYD2 [2], 0.0145 µM.
For `C[C@]1(C(=O)NC2CN(/C(=N\C#N)Nc3cccc(OC(F)F)c3)N=C2c2ccc(Cl)c(Cl)c2)CCCN1` (mixture of isomers) [Example 6, N-[1-{N′-Cyano-N-[3-(difluoromethoxy)phenyl]carbamimidoyl}-3-(3,4-dichlorophenyl)-4,5-dihydro-1H-pyrazol-1-yl]-2-methyl-D-prolinamide], in that order: 0.104 µM and 0.0113 µM.
For `CN(C(=O)[C@H]1C[C@@H](O)CN1)C1CN(/C(=N\C#N)Nc2cccc(OC(F)F)c2)N=C1c1ccc(Cl)c(Cl)c1` (mixture of isomers) [Example 12, (4R)-N-[1-{N′-Cyano-N-[3-(difluoromethoxy)phenyl]carbamimidayl}-3-(3,4-dichlorophenyl)-4,5-dihydro-1H-pyrazol-1-yl]-4-hydroxy-N-methyl-D-prolinamide], in that order: 0.313 µM and 0.0168 µM.
`CCN(C(=O)[C@H]1CCCN1)C1CN(/C(=N\C#N)Nc2cc(OC)cc(C(F)(F)F)c2)N=C1c1ccc(Cl)c(Cl)c1` (mixture of isomers) [Example 28, N-[1-{N′-Cyano-N-[3-methoxy-5-(trifluoromethyl)phenyl]carbamimidoyl}-3-(3,4-dichlorophenyl)-4,5-dihydro-1H-pyrazol-4-yl]-N-ethyl-D-prolinamide]: the IC50 worked out at 0.077 µM at SMYD2 [1] and 0.0395 µM on SMYD2 [2].
On to `CCN(C(=O)[C@H]1CCCN1)C1CN(/C(=N\C#N)Nc2cc(OC)ccc2Cl)N=C1c1ccc(Cl)c(Cl)c1` (mixture of isomers) [Example 32, N-{1-[N-(2-Chloro-5-methoxyphenyl)-N′-cyanocarbamimidoyl]-3-(3,4-dichlorophenyl)-4,5-dihydro-1H-pyrazol-4-yl}-N-ethyl-D-prolinamide], for which the IC50 at SMYD2 [1] was determined as 0.268 µM; at SMYD2 [2], 0.0384 µM.
For `CCN(C(=O)[C@H]1CCN1)C1CN(/C(=N\C#N)Nc2cccc(OC(F)F)c2)N=C1c1ccc(Cl)c(C)c1` (mixture of isomers) [Example 36, (2R)-N-[3-(4-Chloro-3-methylphenyl)-1-{N′-cyano-N-[3-(difluoromethoxy)phenyl]-carbamimidoyl}-4,5-dihydro-1H-pyrazol-4-yl]-N-ethylazetidine-2-carboxamide], in that order: 0.00387 µM and 0.00803 µM.
Take `CCN(C(=O)[C@H]1C[C@@H](F)CN1)C1CN(/C(=N\C#N)Nc2cccc(OC(F)F)c2)N=C1c1ccc(Cl)c(C)c1` (mixture of isomers) [Example 38, (4R)-N-[3-(4-Chloro-3-methylphenyl)-1-{N′-cyano-N-[3-(difluoromethoxy)phenyl]carbamimidoyl}-4,5-dihydro-1H-pyrazol-4-yl]-N-ethyl-4-fluoro-D-prolinamide]: the IC50 on SMYD2 [1] was 0.0188 µM; at SMYD2 [2] it was 0.387 µM.
Turning to `CCCN(C(=O)[C@H]1CCCN1)C1CN(/C(=N\C#N)Nc2cccc(OC(F)F)c2)N=C1c1ccc(Cl)c(C)c1` (mixture of isomers) [Example 40, N-[3-(4-Chloro-3-methylphenyl)-1-{N′-cyano-N-[3-(difluoromethoxy)phenyl]carbamimidoyl}-4,5-dihydro-1H-pyrazol-4-yl]-N-propyl-D-prolinamide], the IC50 amounted to 0.206 µM on SMYD2 [1] and 0.0443 µM at SMYD2 [2].
As for `CCN(C(=O)c1cccc(=O)[nH]1)C1CN(/C(=N\C#N)Nc2cccc(OC(F)F)c2)N=C1c1ccc(Cl)c(Cl)c1` (racemic) [Example 5, rac-N-[1-{N′-Cyano-N-[3-(difluoromethoxy)phenyl]carbamimidoyl}-3-(3,4-dichlorophenyl)-4,5-dihydro-1-pyrazol-4-yl]-N-ethyl-6-oxo-1,6-dihydropyridine-2-carboxamide], the IC50 came to 0.72 µM on SMYD2 [1] and 0.793 µM on SMYD2 [2].
`CCN(C(=O)c1cccc(=O)[nH]1)C1CN(/C(=N\C#N)Nc2cccc(OC(F)(F)F)c2)N=C1c1ccc(Cl)c(Cl)c1` (racemic) [Example 18, rac-N-[1-{N′-Cyano-N-[3-(trifluoromethoxy)phenyl]carbamimidoyl}-3-(3,4-dichlorophenyl)-4,5-dihydro-1H-pyrazol-4-yl]-N-ethyl-6-oxo-1,6-dihydropyridine-2-carboxamide]: the figures for the IC50 on SMYD2 [1] and on SMYD2 [2] were 0.764 µM and 1.52 µM, respectively.
Take `N#C/N=C(/Nc1cccc(OC(F)F)c1)N1CC(NC(=O)[C@@H]2CCC[C@@H]2N)C(c2ccc(Cl)c(Cl)c2)=N1` (relative stereo) [Example 41, Rel-(1R,2S)-2-amino-N-[1-{N′-cyano-N-[3-(difluoromethoxy)phenyl]carbamimidoyl}-3-(3,4-dichlorophenyl)-4,5-dihydro-1H-pyrazol-4-yl]cyclopentanecarboxamide]: the IC50 on SMYD2 [1] came to 0.571 µM; on SMYD2 [2], 0.121 µM.
Take `CCN(C(=O)[C@H]1CCCN1)C1CN(/C(=N\C#N)Nc2cccc(OC(F)F)c2)N=C1c1ccc(Cl)c(Cl)c1` (single isomer, unassigned) [Example 1.1, N-[1-{N′-Cyano-N-[3-(difluoromethoxy)phenyl]carbamimidoyl}-3-(3,4-dichlorphenyl)-4,5-dihydro-1H-pyrazol-4-yl]-N-ethyl-D-prolinamide]: the IC50 stood at 0.0026 µM on SMYD2 [1] and 0.00445 µM on SMYD2 [2].
In the case of `CCN(C(=O)[C@H]1C[C@@H](O)CN1)C1CN(/C(=N\C#N)Nc2cccc(OC(F)F)c2)N=C1c1ccc(Cl)c(Cl)c1` (single isomer, unassigned) [Example 3.1], the IC50 is 0.0634 µM on SMYD2 [1] and 0.0198 µM at SMYD2 [2].
For `CCN(C(=O)[C@H]1CCCN1)C1CN(/C(=N\C#N)Nc2cccc(OC(F)F)c2F)N=C1c1ccc(Cl)c(Cl)c1` (single isomer, unassigned) [Example 13.1, N-[1-{N′-Cyano-N-[3-(difluoromethoxy)-2-fluorophenyl]carbamimidoyl}-3-(3,4-dichlorophenyl)-4,5-dihydro-1H-pyrazol-4-yl]-N-ethyl-D-prolinamide], in that order: 0.0203 µM and 0.0156 µM.
As to `CCN(C(=O)[C@H]1CCCN1)C1CN(/C(=N\C#N)Nc2cccc(OC(F)(F)F)c2F)N=C1c1ccc(Cl)c(Cl)c1` (single isomer, unassigned) [Example 21.1, N-[1-{N′-Cyano-N-[2-fluoro-3-(trifluoromethoxy)phenyl]carbamimidoyl}-3-(3,4-dichlorophenyl)-4,5-dihydro-1H-pyrazol-4-yl]-N-ethyl-D-prolinamide], the IC50 at SMYD2 [1] came to 0.0168 µM; on SMYD2 [2], 0.028 µM.
